This note sets out measurements from paper PMC6838048, “A Cell-Free Approach Based on Phospholipid Characterization for Determination of the Cell Specific Unbound Drug Fraction (fu,cell)” (Pharmaceutical Research, 2019).

Holding throughout (assay type): in vitro ADME
The nature of data set [1]: fu,PL from membrane affinity to PL-covered silica beads, PE. The conditions noted are these: beads coated with pure PE, 15 min incubation; read-out: fu,PE Geomean. How it is done: (§1) f u,PL was derived from membrane affinity measurements to beads covered with PLs as previously described ([6]).
(§2) Cbuffer was quantified by LC-MS/MS in samples of the supernatant that was obtained after 15 min incubation time on an orbital shaker at 1000 rpm and subsequent separation from the beads by centrifugation at 750 x g. […] Unspecific binding was evaluated by incubations into wells without added lipids.

Data set [2] can be described thus: fu,cell by equilibrium dialysis of cell homogenate, MDCK. The conditions noted are these: dog, dialysis 4 h 37°C, 10 million cells/mL homogenate, read-out: fu,MDCK Geomean. The protocol: (§3) fu,cell was measured in cassette-mode as previously described with minor modifications ([9]). Briefly, 10 million cells/mL were suspended in HBSS buffered with 10 mM HEPES and homogenized on ice by sonication (VCX 750 Sonicator, 3 mm probe, 20% intensity, 10 s). Up to 8 compounds were combined randomly and spiked into the homogenate for a final concentration of 0.5 μM. Equilibrium dialysis was performed in a Rapid Equilibirum device (Thermo Fisher Scientific) against blank HBSS buffered with 10 mM HEPES, for 4 h at 37°C on an orbital shaker at 900 rpm. Stability controls were kept at 4° and 37°C for the duration of the experiment. The concentration in both dialysis chambers was quantified by extracting the compound with acetonitrile/water (60/40) containing internal standard. Matrixes were matched with blank buffer or cell homogenate, respectively. LC-MS/MS parameters are available in Table S9. All experiments were carried out in triplicates and at least at two independent occasions.
(§4) (3), assuming the Vcell to be equal to 6.5 μL/mg protein ([6],[10]). Protein content in the cell homogenates was determined at each experiment using the BCA Protein Assay Reagent Kit (Thermo Fisher Scientific Inc.).3 DP=1/Vcell

A short description of data set [3]: fu,cell by equilibrium dialysis of cell homogenate, HEK293. The conditions noted are these: human, dialysis 4 h 37°C, 10 million cells/mL homogenate, read-out: fu,HEK293 Geomean. How it is done:
as §3
(§5) The unbound fraction in the cell homogenate (fu,hom) was determined according to Eq. (1):1 fu,hom=Cbuffer/Chom and the fraction of unbound compound in the cell (fu,cell) was calculated by correcting for homogenate dilution according to Eq. (2):2 fu,cell=1/DP∙1/fu,hom−1+1 where the dilution constant DP was calculated using Eq. (3), assuming the Vcell to be equal to 6.5 μL/mg protein ([6],[10]). Protein content in the cell homogenates was determined at each experiment using the BCA Protein Assay Reagent Kit (Thermo Fisher Scientific Inc.).3 DP=1/Vcell
For orientation: In equilibrium dialysis free small molecules cross a membrane that holds back macromolecules.

A short description of data set [4]: fu,cell by equilibrium dialysis of cell homogenate, K562. The conditions noted are these: human, dialysis 4 h 37°C, 10 million cells/mL homogenate, read-out: fu,K562 Geomean. How it is done: as §3, §5
A short description of data set [5]: fu,PL from membrane affinity to PL-covered silica beads, PC. The conditions noted are these: silica beads covered with phosphatidylcholine (PC), Transil; beads coated with pure PC, 15 min incubation; read-out: fu,PC Geomean. The protocol:
as §1, §2

Data set [6] is described as follows: fu,cell by equilibrium dialysis of cell homogenate, A549. The conditions noted are these: human, dialysis 4 h 37°C, 10 million cells/mL homogenate, read-out: fu,A549 Geomean. The protocol: as §3, §5
Data set [7] in a line: fu,cell by equilibrium dialysis of cell homogenate, HL60. The conditions noted are these: human, dialysis 4 h 37°C, 10 million cells/mL homogenate, read-out: fu,HL60 Geomean. The protocol: as §3, §5
Data set [8] in a line: fu,PL from membrane affinity to PL-covered silica beads, PS. The conditions noted are these: silica beads covered with phosphatidylserine (PS), Transil; beads coated with pure PS, 15 min incubation; read-out: fu,PS Geomean. The protocol:
as §1, §2

Data set [9] is described as follows: fu,cell by equilibrium dialysis of cell homogenate, LLC-PK1. The conditions noted are these: pig, dialysis 4 h 37°C, 10 million cells/mL homogenate, read-out: fu,LLCPK1 Geomean. The protocol:
as §3, §5

Data set [10] in a line: fu,cell by equilibrium dialysis of cell homogenate, Caco-2. The conditions noted are these: human, Caco-2 cell homogenate, dialysis 4 h 37°C, 10 million cells/mL homogenate, read-out: fu,Caco-2 Geomean. How it is done:
as §3, §4

Data set [11] can be described thus: fu,PL from membrane affinity to PL-covered silica beads, mixed beads. The conditions noted are these: for fraction unbound at 15 min: mixed beads PC:PE:PS:PI 52:22:12:14 mol%, 15 min incubation, read-out: fu,mixed bead Geomean; for fu,PL (in words): examples of Fig. 3c, individual PL beads and mixed beads. The protocol: as §1, §2
The nature of data set [12]: fu,cell by equilibrium dialysis of cell homogenate, primary human hepatocytes. The conditions noted are these: primary human hepatocyte homogenate, dialysis 4 h 37°C, 10 million cells/mL homogenate, read-out: fu,HH Geomean. The protocol:
as §3, §5

SMILES strings stand for the structures.

`COc1ccc2[nH]c([S+]([O-])Cc3ncc(C)c(OC)c3C)nc2c1` (centres unmarked) [Omeprazole]: the fraction unbound at 15 min came to 0.0131 in data set [1], 0.0203 in data set [5], 0.0154 in data set [8] and 0.0237 in [11]. Also, the fraction unbound at 4 h, 0.5 μM in [2] was 0.255; in [3], 0.463; in data set [4], 0.419; in data set [6], 0.232; in [7], 0.223; in data set [9] it was 0.238. The fraction unbound at 4 h, 0.5 μM turned out to be 0.181 in [10] and 0.161 in data set [12].
Regarding `Cc1cccc(C)c1OCC(=O)N[C@@H](Cc1ccccc1)[C@@H](O)C[C@H](Cc1ccccc1)NC(=O)[C@H](C(C)C)N1CCCNC1=O` [Lopinavir], the fraction unbound at 15 min in data set [1] stood at 0.0026; in [5], 0.0007; in [8], 0.0011; in [11] it was 0.0011. For the same compound, the fraction unbound at 4 h, 0.5 μM in data set [2] was determined as 0.0119; in [3] it was 0.0155; in [4] it was 0.0234; in [6] it was 0.0056; in data set [7], 0.0168; in [9], 0.0047. Moreover, the fraction unbound at 4 h, 0.5 μM in [10] was found to be 0.0122; in data set [12] it was 0.0044. For the same compound, in [11], the “fu,PL (in words)” value is recorded as “low”.
`CCCNC(=O)NS(=O)(=O)c1ccc(Cl)cc1` [Chlorpropamide]: the fraction unbound at 15 min in data set [1] was found to be 0.0109; in data set [5] it was 0.0534; in [8], 0.0089; in data set [11], 0.0343. The fraction unbound at 4 h, 0.5 μM came out at 0.349 in [2]; 0.571 in [3]; 0.638 in [4]; 0.376 in data set [6]; 0.54 in data set [7]; 0.6 in data set [9]. The fraction unbound at 4 h, 0.5 μM in [10] is 0.654; in data set [12], 0.944. Moreover, the “fu,PL (in words)” value in [11] was “high”.
On to `COc1ccccc1Oc1c(NS(=O)(=O)c2ccc(C(C)(C)C)cc2)nc(-c2ncccn2)nc1OCCO` [Bosentan], for which the fraction unbound at 15 min worked out at 0.0019 in data set [1], 0.002 in [5], 0.0014 in data set [8] and 0.004 in data set [11]. For the same compound, the fraction unbound at 4 h, 0.5 μM in data set [2] stood at 0.036; in [3], 0.0634; in [4], 0.0856; in data set [6], 0.0519; in data set [7], 0.0579; in data set [9], 0.0538. The fraction unbound at 4 h, 0.5 μM in [10] amounted to 0.0335; in data set [12] it was 0.0337.
Turning to `COCCc1ccc(OCC(O)CNC(C)C)cc1` (centres unmarked) [Metoprolol], the fraction unbound at 15 min in [1] is 0.0099; in [5], 0.0101; in data set [8], 0.0081; in [11], 0.0148. Also, the fraction unbound at 4 h, 0.5 μM amounted to 0.202 in data set [2]; 0.0906 in data set [3]; 1 in [4]; 0.0881 in data set [6]; 0.339 in [7]; 0.34 in data set [9]. Moreover, the fraction unbound at 4 h, 0.5 μM in data set [10] was 0.174; in data set [12], 0.374.
